Experimental findings from patent US8541455B2, “Derivatives of 2-pyridin-2-yl-pyrazol-3(2H)-one, preparation and therapeutic use thereof as HIF activators” (Sanofi, priority 2008, dated 2013) are described below.

One data set has as its system HIF1-alpha. Briefly: Measurement of the stabilization of HIF1-alpha in HEKEA cells (beta-galactosidase complementation, luminescence). Type of data set: cell-based, human. The settings on record: HEKEA_HIF1-alphaPLBL cells, 6 hours incubation under normoxia; concentration that produces 50% of the maximum response of this same compound. An excerpt: Furthermore, a subject of the invention is also a uniform test process for the direct measurement by beta-galactosidase complementation of the amount of HIF1-alpha protein in the nucleus of cells, preferably HEK cells, after treating the said cells with one or more test compounds, which consists in: • (a) inoculating, preferably in 384-well plates, the said cells in a suitable culture medium, preferably 1% foetal calf serum (abbreviated as FCS); • (b) adding the test compound(s) at a suitable concentration in a suitable solvent to the cells previously inoculated in the said culture medium; preferably the test compounds are diluted in 0.1% FCS; • (c) incubating the said cells thus prepared in an indicator at about 37° C., advantageously for about 6 hours; • (d) lysing the cells with a lysis buffer containing a chemiluminescent substrate for beta-galactosidase; • (e) incubating in the absence of light, before reading and measuring the luminescence, which is a function of the beta-galactosidase activity.
Many tests exist describing the indirect measurement of the activity of HIF via reporter gene systems (HRE-luciferase) or via the measurement of HIF-induced proteins (for example VEGF or EPO). Furthermore, the only tests that allow direct measurement of the amount of HIF1-alpha protein in cells are tests using antibodies, for instance Western blotting comprising phases of cell extraction (total lysates or nuclear extracts) that are consuming in terms of cells and time, thus limiting the compound screening capacity. The object was thus to develop a sensitive screening test, adaptable to 384-well plates, for directly measuring the amount of HIF1-alpha protein in the nucleus of cells. This test was established in HEK cells ([…]).
The test is a cell test based on the principle of enzyme complementation, the enzyme used herein being beta-galactosidase. HEKEA cells are HEK cells stably expressing, and restricted in their nucleus, mutant beta-galactosidase (omega fragment, also known as EA) (line sold by DiscoverX). This construct makes it possible to obtain beta-galactosidase activity only when the protein comprising the Prolabel complementation fragment has migrated into the nucleus.
The protein of interest comprising the Prolabel fragment is in this case an HIF1-alpha or HIF1-alpha mutated at the two prolines 402 and 564 replaced with alanines, is C-terminal fused via molecular biology (DiscoverX vector sold by Clontech) with the small complementation peptide fragment (Prolabel or ED, about 4 kDa). The vector coding for the chimeric protein HIF1-alpha_Prolabel is then transfected into HEKEA cells to obtain stable clones (HEKEA_HIF1-alphaPLBL).
The amount of C-terminal Prolabel-“labelled” HIF1-alpha protein obtained after treating the cells to hypoxia or compounds that are potentially HIF activators is measured by adding to the cells a lysis buffer containing a chemiluminescent substrate for beta-galactosidase.
The measurement of the beta-galactosidase activity will be proportional to the amount of Prolabel and thus of HIF1-alpha that has migrated into the nucleus of the cells.
• 1.3.1 Experiment Plan • 1) Inoculation of the cells on D0 • 2) Adherence for 24 hours under normoxia • 3) Preparation and addition of the products (Biomek 2000 and FX) on D+1 • 4) Incubation under normoxia for 6 hours • 5) Reading of the plates (by luminescence)
The cells are inoculated with Multidrop in white, opaque-bottomed 384-well plates (Greiner ref 3704), in 30 μl of culture medium (1% FCS) at 10 000 cells/well (cell plate). • 1.3.3 Treatment • Preparation of the Dilution Plate (DL Plate)
The test products are prepared at 3×10^−2 M in 100% DMSO and then diluted to 3×10^−4 M in medium containing 0.1% FCS (10 μl in 990 μl of MEM). They are then deposited by hand into column 12 of a round-bottomed 96-well plate (200 μl of each compound) known as the dilution plate (dl). […]

The subject of data set [1] is EPO secretion by Hep3B cells. The experiment in a line: Measurement of the secretion of EPO by Hep3B hepatocytes (ELISA on supernatant). Type of data set: cell-based. The settings on record: Homo sapiens, 18 hours incubation under normoxia, EPO in supernatant, 50% of the maximum response of this same compound. An excerpt:
(§1) 2. Measurement of the Secretion of VEGF and EPO by Hep3B Hepatocytes 2.1. Object
(§2) HIF is a transcription factor involved in the adaptation of cells to hypoxia. Since the genes activated by HIF are involved in the adaptive response of cells to hypoxia and of tissues to ischaemia, the object is to identify and characterize compounds that stabilize HIF1-alpha in cells in order to amplify or mimic its beneficial effect. HIF1-alpha was identified following the analysis of the EPO gene promoter, which makes this protein one of the first markers of HIF1-alpha activation. Moreover, VEGF is also identified in the literature as one of the main markers of HIF activation. It is for this reason that measurement of these two proteins was selected for characterizing compounds that are HIF activators in Hep3B cells.
(§3) The object was thus to develop a sensitive screening test, adaptable to 96-well plates, for directly measuring the amount of VEGF and EPO in the supernatant of the Hep3B cells (cells derived from a human hepatocarcinoma) in response to the potential HIF activators.
(§4) The test is an ELISA test for measuring VEGF and EPO in the supernatant of Hep3B cells treated under hypoxia or with deferoxamine as controls or with the potential HIF activators. The test was adapted to a 96-well plate, allowing greater compound screening capacity.
(§5) • 2.3.1 Experiment Plan • 1) Inoculation of the cells on D0 • 2) Adherence for 6 hours under normoxia • 3) Preparation and addition of the products (Biomek 2000 and FX) • 4) Incubation under normoxia for 18 hours • 5) EPO and VEGF assay in the supernatant on D+1 • 2.3.2 Inoculation of the Cells
(§6) The cells are subcultured into 100 μl of culture medium (10% FCS) in black, opaque-bottomed 96-well plates (reference Costar 3916) at 30 000 cells/well, with Multidrop. • 2.3.3 Treatment of the Cells
(§7) The test products are prepared at 10^−2 M in 100% DMSO and then diluted to […] in medium containing 0.1% FCS (6 μl in 194 μl of MEM). 200 μl of each compound are deposited in column 12 of a 96-well plate. Dilution ranges from […] to 3×10^−8M are prepared with Biomek 2000 (programme: range of 9 points in series). 100 μl of MEM 0.1% FCS and Deferoxamine 5×10^−3M are added as controls to column 3 and, respectively, to wells A,B,C,D and wells E,F,G,H • DL Plate Distribution in Cell Plates
(§8) The medium of the cells inoculated the day before into 96-well plates is changed for 90 μl of medium containing 0.1% FCS and 10 μl are distributed with FX 96 from the 96-well DL plates to the cell plates.
(§9) The cell plates thus treated are placed for 18 hours in an incubator at 37° C. (ambient O2, 6% CO2).
(§10) The supernatants (80 μl) of the Hep3B cells in the 96-well plates treated with the potential HIF activators are recovered with a multichannel pipette for simultaneous assay of the VEGF and the EPO by ELISA according to the supplier's instructions (Kit EPO Mesoscale (ref K15122B-2)).
(§11) The activating activity of a compound with respect to HIF is given by the concentration that produces 50% of the maximum response of this same compound in Table IV below.

Data set [2] concerns VEGF secretion by Hep3B cells. Briefly: Measurement of the secretion of VEGF by Hep3B hepatocytes (ELISA on supernatant). Format: cell-based. The note with it: Homo sapiens, 18 hours incubation under normoxia, VEGF in supernatant, 50% of the maximum response of this same compound.
Excerpt: as §1, §2, §3, §4, §5, §6, §7, §8, §9, §10, §11
In general terms: In an ELISA, binding on a coated surface is turned into a signal by an enzyme label.

Usually EC50 stands for the midpoint of the concentration-response curve. As usually defined, the melting point is the temperature of the solid-liquid transition. Compound `CCN(c1ccccc1)S(=O)(=O)c1ccc(-n2[nH]c(CC(C)C)c(Cc3ccccc3)c2=O)nc1` [Compound 88] displayed a melting point of 138 °C. Also, the EC50 in the data set on HIF1-alpha came to 880 nM. Moreover, the EC50 in data set [1] was determined as 300 nM. Besides, a half-maximal effect in data set [2] (EC50) was put at 400 nM.
In turn, `CCN(c1ccccc1)S(=O)(=O)c1ccc(-n2[nH]c(C)c(Cc3ccc(OC)cc3)c2=O)nc1` [Compound 54, N-ethyl-6-[4-(4-methoxybenzyl)-3-methyl-5-oxo-2,5-dihydro-1H-pyrazol-1-yl]-N-phenylpyridine-3-sulfonamide] registered a melting point of 188 °C. In the data set with HIF1-alpha, this compound yielded an EC50 of 6400 nM. In addition, in data set [1], the EC50 was 450 nM. The EC50 in data set [2] is 300 nM.
The like results for `CCN(c1ccccc1)S(=O)(=O)c1ccc(-n2[nH]c(C)c(Cc3ccc(O)cc3)c2=O)nc1` [Compound 48] were, in that order, 208 °C, 4300 nM, 1100 nM and 1900 nM.
Consider `CCN(c1ccccc1)S(=O)(=O)c1ccc(-n2[nH]c(C)c(Cc3cc(OC)cc(OC)c3)c2=O)nc1` [Compound 47], for which the melting point stood at 162 °C. This compound returned a concentration giving a half-maximal response (EC50) with HIF1-alpha of 1100 nM. This compound also had an EC50 in data set [1] of 2000 nM. The EC50 in data set [2] amounted to 2800 nM.
For `CCCc1[nH]n(-c2ccc(S(=O)(=O)N(CC)c3ccccc3)cn2)c(=O)c1Cc1ccccc1` [Compound 68, 6-(4-benzyl-5-oxo-3-propyl-2,5-dihydro-1H-pyrazol-1-yl)-N-ethyl-N-phenylpyridine-3-sulfonamide] the same measures were 180 °C, 1500 nM, 400 nM and 500 nM.
In the case of `CCN(c1ccccc1)S(=O)(=O)c1ccc(-n2[nH]c(C(F)(F)F)c(Cc3ccccc3)c2=O)nc1` [Compound 83, 6-(4-benzyl-5-oxo-3-trifluoromethyl-2,5-dihydro-1H-pyrazol-1-yl)-N-ethyl-N-phenylpyridine-3-sulfonamide], the melting point turned out to be 186 °C. Moreover, a half-maximal response in the data set with HIF1-alpha (EC50) required 3300 nM. In data set [1], this compound registered a concentration for a half-maximal effect (EC50) of 1400 nM. The compound also yielded an EC50 in data set [2] of 1300 nM.
For `CCN(c1ccccc1)S(=O)(=O)c1ccc(-n2[nH]c(C)c(Cc3cc(OC)ccc3OC)c2=O)nc1` [Compound 44] the same measures were 140 °C, 3100 nM, 1900 nM and 2100 nM.
For `CCN(c1ccccc1)S(=O)(=O)c1ccc(-n2[nH]c(C)c(Cc3cccc(N(C)C)c3)c2=O)nc1` [Compound 53, 6-{4-[3-(dimethylamino)benzyl]-3-methyl-5-oxo-2,5-dihydro-1H-pyrazol-1-yl}-N-ethyl-N-phenylpyridine-3-sulfonamide], the melting point stood at 122 °C. The same compound showed an EC50 in the data set with HIF1-alpha of 2600 nM. Moreover, the midpoint of the response in data set [1], the EC50, lay at 900 nM. Moreover, the half-maximal effective concentration (EC50) in data set [2] turned out to be 3200 nM.
